Assay results as given in EP1095025B1, “BENZIMIDAZOLES, PRODUCTION THEREOF AND USE THEREOF AS MEDICAMENTS” (Boehringer Ingelheim Pharma KG, priority 1998, dated 2000).
Structures can show the parent of a compound that is named as a salt.

System: humanem Citrat-Plasma
Assay: aPTT time prolongation in plasma (Biomatic B10 coagulometer)
Assay type: biochemical
Conditions: effective substance concentration, from a dose-response curve, at which the aPTT time is doubled versus control; human citrate plasma, 37°C

`Cn1c(CNc2ccc(C(=N)N)cc2)nc2cc(C3(C(=NOCC(=O)O)c4ccccn4)CC3)ccc21` (mixture of isomers) [B, (E/Z)-2-(4-Amidinophenylaminomethyl)-1-methyl-5-[1-[(pyridin-2-yl)-(carboxymethyloxyimino)methylen]cyclopropyl]-benzimidazol-hydrochlorid] and `Cl.Cn1c(CNc2ccc(C(=N)N)cc2)nc2cc(C3(C(=O)N4CCCC4CCC(=O)O)CC3)ccc21` (stereo not shown) [D, 2-(4-Amidinophenylaminomethyl)-1-methyl-5-[1-[2-(2-carboxyethyl)-pyrrolidin-1-yl-carbonyl]cyclopropyl]-benzimidazol-hydrochlorid] are within 1.5-fold of each other in “aPTT-Zeit (ED200 in µM)” value: 0.42 µM for the first, 0.29 µM for the second.

Compared with `Cl.Cn1c(CNc2ccc(C(=N)N)cc2)nc2cc(C3(C(=O)N4CCCC4)CC3)ccc21` [A, 2-(4-Amidinophenylaminomethyl)-1-methyl-5-[1-(pyrrolidin-1-yl-carbonyl)cyclopropyl]-benzimidazol-hydrochlorid], `Cl.Cn1c(CNc2ccc(C(=N)N)cc2)nc2cc(C(C)(NCC(=O)O)C(=O)N3CCCC3)ccc21` (stereo not shown) [F, 2-(4-Amidinophenylaminomethyl)-1-methyl-5-[1-(carboxymethylamino)-1-(pyrrolidin-1-yl-carbonyl)-ethyl]-benzimidazol-hydrochlorid] is 1.7-fold higher in “aPTT-Zeit (ED200 in µM)” value: 0.12 µM for the first, 0.20 µM for the second.

Going from `Cl.Cn1c(CNc2ccc(C(=N)N)cc2)nc2cc(C(C)(NCCC(=O)O)C(=O)N3CCCC3)ccc21` (stereo not shown) [C, 2-(4-Amidinophenylaminomethyl)-1-methyl-5-[1-(2-carboxyethylamino)-1-(pyrrolidin-1-yl-carbonyl)-ethyl]-benzimidazol-hydrochlorid] to `CN(CC(C)(C(=O)N1CCCC1)c1ccc2c(c1)nc(CNc1ccc(C(=N)N)cc1)n2C)C(=O)CC(=O)O` (stereo not shown) [G, 2-(4-Amidinophenylaminomethyl)-1-methyl-5-[1-(N-methylcarboxymethylcarbonylaminomethyl)-1-methyl-1-(pyrrolidin-1-yl-carbonyl)-ethyl]-benzimidazol-dihydrochlorid], the “aPTT-Zeit (ED200 in µM)” value falls from 0.31 µM to 0.17 µM (1.8-fold).

With `Cc1nc(CCC(=O)O)n(Cc2ccc3c(c2)nc(CNc2ccc(C(=N)N)cc2)n3C)c1C.Cl` [E, 2-(4-Amidinophenylaminomethyl)-1-methyl-5-[2-(2-carboxyethyl)-4,5-dimethyl-imidazol-1-yl-methyl]-benzimidazol-hydrochlorid] the “aPTT-Zeit (ED200 in µM)” value was 0.29 µM.
